Values quoted from earlier work as cited in US7713351B2, “Method for crystallization of proteins using polysaccharides” (Macrocrystal Oy, priority 2004, dated 2010).

Details: room temperature; CRC Handbook of Chemistry and Physics

Viscosity: 934 mPa s
SMILES: OCC(O)CO [glycerol]
